Test results published in US20170166516A1, “STABLE POLYMORPH FORM B OF TAPENTADOL HYDROCHLORIDE” (priority 2014, published 2017).
Structures can show the parent of a compound that is named as a salt.

Key:
[1] = cited from earlier work; for stability of the crystalline form: ambient conditions, as disclosed in EP 1 612 203 A1, hydrochloride
[2] = Stability test of polymorphic Form B on storage, followed by PXRD; type: physicochemical; details: for change in amount of polymorphic Form A in Form B on storage (PXRD): 2 month storage, ambient temperature, sample contains traces of Form A, Hydrochloride
Protocol: In FIG. 1 the PXRD pattern of a stability sample experiment 1 are shown as well as PXRD pattern of Tapentadol hydrochloride in polymorphic crystal structure A and in polymorphic crystal structure B. The upper most pattern results from a sample (experiment 1) after a 4 month stability test at 27° C. and 42% RH (relative humidity). The second of top pattern results from the initial sample prior to the stability testing. […] The second last pattern represents the mono-crystal structure of pure Tapentadol Hydrochloride in polymorphic crystal Form B. The last pattern represents the mono-crystal structure of pure Tapentadol Hydrochloride in polymorphic crystal Form A.
For Powder X-Ray Diffraction (PXRD) the samples were placed onto a Si-wafer (Bragg-Brentano) or into a standard glass capillary (Ø=0.7 mm) (Example 2). The measurements were performed at room temperature with a D8 Bruker Advance Diffractometer (Cu-Kα1=1.54059 Å, Johansson primary beam monochromator, position sensitive detector) in transmission mode with rotation of the sample.

CC[C@@H](c1cccc(O)c1)[C@@H](C)CN(C)C [stable polymorph B, Tapentadol hydrochloride]
duration of stability of polymorphic Form B ([1]; ambient temperatures, stabilised by low alkyl carboxylic acids or esters added during crystallization, WO 2013 111161 A1): several months

CC[C@@H](c1cccc(O)c1)[C@@H](C)CN(C)C [Form B, Tapentadol hydrochloride]
stability of the crystalline form [1]: meta-stable only

CC[C@@H](c1cccc(O)c1)[C@@H](C)CN(C)C [experiment 1, Tapentadol Hydrochloride]
transformation of polymorphic crystal Form B to Form A (PXRD pattern after stability test) ([2]; 4 month stability test at 27° C. and 42% RH): does not show any tendency to disintegrate or to transform to polymorphic crystal Form A | transformation of Form B to polymorph A on storage (PXRD) ([2]; several months of storage under ambient conditions, no seeds of Form A): no transformation to polymorph A

CC[C@@H](c1cccc(O)c1)[C@@H](C)CN(C)C [Example 3, Tapentadol Hydrochloride]
change in amount of polymorphic Form A in Form B on storage (PXRD) [2]: increase of Form A in Form B was observed | change in amount of polymorphic Form A in Form B on storage (PXRD) ([2]; listed as experimental polymorphic Form B): amount of polymorphic Form A obviously increased

CC[C@@H](c1cccc(O)c1)[C@@H](C)CN(C)C [Form A, Tapentadol hydrochloride]
stability of the crystalline form [1]: stable under ambient conditions
